Counter-ions that a name gives are not always drawn. Starred links: 1 amine or outer side, 2 acyl side, 3 side chain; linkers in the order of their positions; H or OH if unused. Non-standard residues stand in square brackets, D forms with d. Residues, ends and D or L forms follow the SMILES beside them. Groups on a side chain read outwards from the residue. *: point of attachment. F(4amDOTA-Lu) = lutetium complex of (S)-2,2',2''-(10-(2-((4-(2-amino-2-carboxyethyl)benzyl)amino)-2-oxoethyl)-1,4,7,10-tetraazacyclododecane-1,4,7-triyl)triacetic acid (Phe with 4-aminomethyl-DOTA-Lu), O=C([O-])CN1CCN(CC(=O)[O-])CCN(CC(=O)NCc2ccc(C[C@H](N[*:1])C(=O)[*:2])cc2)CCN(CC(=O)[O-])CC1.[Lu+3]; F(4amPEG2NHAAZTA-Lu) = lutetium complex of (S)-2,2'-((6-(1-(4-(2-amino-2-carboxyethyl)phenyl)-3,12-dioxo-5,8-dioxa-2,11-diazahexadecan-16-yl)-1,4-bis(carboxymethyl)-1,4-diazepan-6-yl)azanediyl)diacetic acid (Phe with 4-aminomethyl-PEG2-AAZTA-L; COpipzaa = 4-(carboxymethyl)piperazine-1-carbonyl, O=C(O)CN1CCN(C(=O)*)CC1; F(4amPEG2NHRDOTAGA-Ga) = Phe with 4-aminomethyl-PEG2-NH-DOTAGA, Ga complex; hS(Pr) = O-propyl-L-homoserine, CCCOCC[C@H](N[*:1])C(=O)[*:2]; DOTA = O=C(O)CN1CCN(CC(=O)O)CCN(CC(=O)*)CCN(CC(=O)O)CC1; Trp(7-Cl) = N[C@@H](Cc1c[nH]c2c(Cl)cccc12)C(=O)O; Piperazinyl(4-CH2COOH) = O=C(O)CN1CCN(*)CC1; AEF = NCCOc1ccc(C[C@H](N)C(=O)O)cc1; NMeF = CN[C@@H](Cc1ccccc1)C(=O)O; Ahp(2) = CCCCC[C@H](N)C(=O)O; NMeK = CN[C@@H](CCCCN)C(=O)O; hSer = N[C@@H](CCO)C(=O)O; dNMeA = CN[C@H](C)C(=O)O; CO = O=C([*:1])[*:2]
Assays:
mouse FAP [1] = target: T1, mouse FAP (Mus musculus, UniProt P97321); assay: Surface plasmon resonance (SPR) for peptide affinity, mouse FAP; format: binding
T1 construct: biotinylated His, Avi tag, mouse FAP (26-761, FAP-M82Q5); His; Avi tag (biotinylated); purchased AcroBiosystems FAP-M82Q5
T1 sequence (P97321 26-761): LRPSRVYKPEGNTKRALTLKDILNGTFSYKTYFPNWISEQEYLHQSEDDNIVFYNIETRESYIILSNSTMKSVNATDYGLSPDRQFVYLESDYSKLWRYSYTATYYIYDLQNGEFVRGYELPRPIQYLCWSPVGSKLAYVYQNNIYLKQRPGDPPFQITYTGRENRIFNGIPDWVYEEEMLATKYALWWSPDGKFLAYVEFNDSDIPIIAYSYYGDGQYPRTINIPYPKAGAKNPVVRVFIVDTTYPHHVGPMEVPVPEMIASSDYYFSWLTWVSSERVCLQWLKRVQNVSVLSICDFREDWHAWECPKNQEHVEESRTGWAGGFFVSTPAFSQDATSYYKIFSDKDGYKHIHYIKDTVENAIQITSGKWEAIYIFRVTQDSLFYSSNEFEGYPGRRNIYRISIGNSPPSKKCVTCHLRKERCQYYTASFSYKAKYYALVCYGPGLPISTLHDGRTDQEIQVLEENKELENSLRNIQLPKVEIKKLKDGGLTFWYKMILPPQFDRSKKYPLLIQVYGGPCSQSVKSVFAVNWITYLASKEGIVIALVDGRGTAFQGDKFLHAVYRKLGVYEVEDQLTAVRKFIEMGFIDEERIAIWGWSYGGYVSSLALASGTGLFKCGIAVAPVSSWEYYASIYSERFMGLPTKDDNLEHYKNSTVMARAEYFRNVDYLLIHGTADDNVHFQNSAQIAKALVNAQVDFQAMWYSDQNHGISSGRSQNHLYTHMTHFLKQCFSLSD
In short: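 KD values come from a 1:1 kinetic fit of single-cycle SPR data: 8 peptide concentrations, 25 °C, 30 μL/min, HEPES-buffered saline pH 7.6 with 2% DMSO. Targets were His/Avi-tagged human (26-760) or mouse (26-761) FAP, amine-coupled to CM5 or held on a CAPture chip.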

mouse FAP [2] = target: T1, mouse FAP; assay: Enzymatic FAP competition assay (Z-Gly-Pro-AMC fluorescence), mouse FAP; format: biochemical; settings: read-out: m. FAP, Enz., IC50
In short: (§1)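 IC50 values come from curve fitting of duplicate % inhibition data on AMC fluorescence (ex 380, em 460 nm) after 4 h at 22-24° C with 50 μM Z-Gly-Pro-AMC. Beforehand, peptides up to 1 μM (14 levels) sat 24 h with 0.01 nM human (26-760) or mouse (26-761) tagged FAP in phosphate buffer pH 7.5, NaCl, Tween20, 1% DMSO.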

human FAP = target: T2, human FAP (Homo sapiens, UniProt Q12884); assay: Enzymatic FAP competition assay (Z-Gly-Pro-AMC fluorescence), human FAP; format: biochemical; settings: read-out: h. FAP, Enz., IC50
T2 construct: the biotinylated His, Avi tag, human FAP (26-760, FAP-H82Q6); His; Avi tag (biotinylated); purchased AcroBiosystems FAP-H82Q6
T2 sequence (Q12884 26-760): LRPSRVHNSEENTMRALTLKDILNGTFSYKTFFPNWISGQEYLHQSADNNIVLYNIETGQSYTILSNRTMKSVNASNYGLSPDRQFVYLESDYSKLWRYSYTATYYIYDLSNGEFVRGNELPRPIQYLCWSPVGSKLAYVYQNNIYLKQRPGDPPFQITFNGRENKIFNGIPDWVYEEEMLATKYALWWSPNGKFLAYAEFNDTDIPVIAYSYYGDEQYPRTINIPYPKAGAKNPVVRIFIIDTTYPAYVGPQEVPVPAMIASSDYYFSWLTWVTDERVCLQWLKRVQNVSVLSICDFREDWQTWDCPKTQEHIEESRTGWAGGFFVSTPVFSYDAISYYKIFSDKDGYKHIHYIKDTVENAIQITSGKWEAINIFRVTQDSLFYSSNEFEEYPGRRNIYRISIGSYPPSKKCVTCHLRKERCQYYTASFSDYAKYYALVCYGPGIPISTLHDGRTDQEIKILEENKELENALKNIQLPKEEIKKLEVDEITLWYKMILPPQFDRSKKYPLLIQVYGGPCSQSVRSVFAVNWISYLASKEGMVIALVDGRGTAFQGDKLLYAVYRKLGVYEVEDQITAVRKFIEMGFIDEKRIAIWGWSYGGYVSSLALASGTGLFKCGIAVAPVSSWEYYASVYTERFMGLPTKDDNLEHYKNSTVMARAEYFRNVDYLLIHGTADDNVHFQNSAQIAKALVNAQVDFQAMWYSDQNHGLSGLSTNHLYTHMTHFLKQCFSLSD
In short: as §1

| Molecule | Kd (mouse FAP [1]) [nM] | IC50 (mouse FAP [2]) [nM] | IC50 (human FAP) [nM] |
| --- | --- | --- | --- |
| CCCCC[C@@H]1NC(=O)[C@H](Cc2ccc(O)cc2)NC(=O)[C@H](Cc2ccccc2)N(C)C(=O)CNC(=O)CNC(=O)[C@H]2CCCN2C(=O)[C@H](CC(=O)O)NC(=O)[C@H](CCCCNC(=O)N2CCN(CC(=O)O)CC2)N(C)C(=O)CNC(=O)[C@H](Cc2c[nH]c3ccccc23)NC1=O [Example A3, 2-((9S,12S,15S,18S,24S,27S,32aR)-18-((1H-indol-3-yl)methyl)-9-benzyl-24-(4-(4-(carboxymethyl)piperazine-1-carboxamido)butyl)-12-(4-hydroxybenzyl)-8,23-dimethyl-1,4,7,10,13,16,19,22,25,28-decaoxo-15-pentyldotriacontahydropyrrolo[1,2-a][1,4,7,10,13,16,19,22,25,28]decaazacyclotriacontin-27-yl)acetic acid TFA salt] (cyclo([Ahp(2)]WG[NMeK]([CO-Piperazinyl(4-CH2COOH)])D[dP]GG[NMeF]Y)) | 1.9 | 0.95 | 0.76 |
| CCCCC[C@@H]1NC(=O)[C@H](Cc2ccc(O)cc2)NC(=O)[C@H](Cc2ccccc2)N(C)C(=O)CNC(=O)[C@H](CCCCN)NC(=O)[C@H]2CCCN2C(=O)[C@H](CC(=O)O)NC(=O)[C@H](Cc2ccc(O)cc2)NC(=O)CNC(=O)[C@H](Cc2c[nH]c3c(Cl)cccc23)NC1=O [Example A25, Lys-Gly-NMePhe-Tyr-Ahp-W(7Cl)-Gly-Tyr-Asp-D-Pro, TFA salt] (cyclo([Ahp(2)][Trp(7-Cl)]GYD[dP]KG[NMeF]Y)) | 0.47 | 0.86 | 0.209 |
| CCCCC[C@@H]1NC(=O)[C@H](Cc2ccc(O)cc2)NC(=O)[C@H](Cc2ccccc2)N(C)C(=O)CNC(=O)CNC(=O)[C@@H](C)N(C)C(=O)[C@H](CC(=O)O)NC(=O)[C@H](Cc2ccc(O)cc2)NC(=O)CNC(=O)[C@H](Cc2c[nH]c3ccccc23)NC1=O [Example A65, Gly-Gly-NMePhe-Tyr-Ahp-Trp-Gly-Tyr-Asp-D-NMeA] (cyclo([Ahp(2)]WGYD[dNMeA]GG[NMeF]Y)) | 1.8 | 2.8 | 0.34 |
| CCCCC[C@@H]1NC(=O)[C@H](Cc2ccc(OCCNC(=O)CN3CCN(CC(=O)O)CCN(CC(=O)O)CCN(CC(=O)O)CC3)cc2)NC(=O)[C@H](Cc2ccccc2)N(C)C(=O)CNC(=O)CNC(=O)[C@H]2CCCN2C(=O)[C@H](CC(=O)O)NC(=O)[C@H](CCCCNC(=O)N2CCN(CC(=O)O)CC2)NC(=O)CNC(=O)[C@H](Cc2c[nH]c3ccccc23)NC1=O [Example B3, Gly-Gly-NMePhe-F(4OEtNHDOTA)-Ahp-Trp-Gly-K(COpipzaa)-Asp-D-Pro] (cyclo([AEF](DOTA)[Ahp(2)]WGK([CO-Piperazinyl(4-CH2COOH)])D[dP]GG[NMeF])) | 0.093 | 0.091 | 0.025 |
| CCCCC[C@@H]1NC(=O)[C@H](Cc2ccc(O)cc2)NC(=O)[C@H](Cc2ccccc2)N(C)C(=O)CNC(=O)[C@H](CCO)NC(=O)[C@H]2CCCN2C(=O)[C@H](CC(=O)O)NC(=O)[C@H](Cc2ccc(O)cc2)NC(=O)CNC(=O)[C@H](Cc2c[nH]c3ccccc23)NC1=O [Example A42, hSer-Gly-NMePhe-Tyr-Ahp-Trp-Gly-Tyr-Asp-D-Pro] (cyclo([Ahp(2)]WGYD[dP][hSer]G[NMeF]Y)) | 0.2 | 0.36 | 0.089 |

Further lines, results first:

| Kd (mouse FAP [1]) [nM] | IC50 (mouse FAP [2]) [nM] | IC50 (human FAP) [nM] | Molecule |
| --- | --- | --- | --- |
| < 0.027 | 0.044 | 0.017 | Gly-Gly-NMePhe-F(4amPEG2NHAAZTA-Lu)-hS(Pr)-Trp-Gly-K(COpipzaa)-Asp-D-Pro (cyclo(GG[NMeF][F(4amPEG2NHAAZTA-Lu)][hS(Pr)]WGK(COpipzaa)D[dP]); also: Lu complex) [Example C32] |
| < 0.024 | 0.051 | 0.015 | Gly-Gly-NMePhe-F(4amPEG2NHRDOTAGA-Ga)-hS(Pr)-Trp-Gly-K(COpipzaa)-AsI-D-Pro (cyclo(GG[NMeF][F(4amPEG2NHRDOTAGA-Ga)][hS(Pr)]WGK(COpipzaa)D[dP]); also: Ga complex) [Example C39] |
| 0.4 | 0.29 | 0.084 | Gly-Gly-NMePhe-F(4amDOTA-Lu)-Ahp-Trp-Gly-Tyr-Asp-D-Pro (cyclo(GG[NMeF][F(4amDOTA-Lu)][Ahp(2)]WGYD[dP]); also: Lu complex) [Example C16] |
